Assays:
[1] = biological target: T1, Human TGFβR-1 (Homo sapiens, UniProt P36897); experiment: In vitro enzyme assay: inhibition of TGFβR-1 (ADP-Glo kinase assay); format: biochemical; settings: TGFβR-1 kinase 50 ng/well, 50 μM ATP, 120 min RT
T1 construct: purchased Promega V4092
T1 sequence (P36897 34-503): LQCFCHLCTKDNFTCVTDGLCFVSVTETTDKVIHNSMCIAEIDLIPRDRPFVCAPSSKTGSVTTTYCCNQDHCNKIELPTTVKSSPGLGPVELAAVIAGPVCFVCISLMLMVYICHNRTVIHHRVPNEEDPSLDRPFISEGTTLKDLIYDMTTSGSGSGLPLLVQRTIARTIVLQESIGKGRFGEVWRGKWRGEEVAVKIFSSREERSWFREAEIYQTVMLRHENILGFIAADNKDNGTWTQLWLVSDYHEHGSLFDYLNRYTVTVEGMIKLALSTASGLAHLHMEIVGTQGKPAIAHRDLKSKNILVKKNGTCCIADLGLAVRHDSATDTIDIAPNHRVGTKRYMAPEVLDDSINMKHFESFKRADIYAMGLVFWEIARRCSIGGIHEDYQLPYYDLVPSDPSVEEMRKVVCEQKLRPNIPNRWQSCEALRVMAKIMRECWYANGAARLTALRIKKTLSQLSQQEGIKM
Description: In the present application are used the following abbreviations, with the corresponding definitions: • AcOH: Acetic Acid • ACVR2B: activin A receptor, type IIB • ALKn: activin receptor-like kinase n • ATP: adenosin triphosphate • Boc2O: tert-butyl dicarbonate • Boc: tert-Butoxycarbonyl • Clint: Intrinsic clearance • DIPEA: N,N-Diisopropylethylamine • DMA: Dimethylacetamide • DMAP: 4-Dimethylaminopyridine • DMF: N,N-Dimethylformamide • DMSO: Dimethyl sulfoxide • EDCl: N-(3-Dimethylaminopropyl)-N′-ethylcarbodiimide) • Et3N: Triethylamine • EtOAc: Ethyl acetate • EtOH: ethanol • FBS: Fetal bovine serum • H: hour • HATU: 1-[Bis(dimethylamino)methylene]-1H-1,2,3-triazolo[4,5-b]pyridinium 3-oxide hexafluorophosphate • HOBT: Hydroxybenzotriazole • HPLC: High-performance liquid chromatography • ^1H-NMR: Proton nuclear magnetic resonance • K2EDTA: ethylenediaminetetracetic acid dipotassium salt • LC: Liquid chromatography • LiHMDS: Lithium bis(trimethylsilyl)amide • LLOQ: lower limit of quantification • MeCN: Acetonitrile • MeOH: Methanol • Min: minutes • MS: Mass spectroscopy • MTBE: Methyl tert-butyl ether • NBS: N-Bromosuccinimide • NaCMC: Sodium carboxymethyl cellulose • Rt: retention time • RT: room temperature • Sem: 2-(Trimethylsilyl)ethoxymethyl • TGFβ: transforming growth factor-β • THF: Tetrahydrofuran • THF:EtOH: Tetrahydrofuran:ethanol • UPLC: ultra high-performance liquid chromatography • UV: Ultraviolet Pharmacological Activity In Vitro Enzyme Assay: Inhibition of TGFβR-1 Human TGFβR-1 inhibition experiments were carried out in a white 384-microplate low flange (Corning 3572) with ADP-Glo kinase Assay Kit (Promega V9101) and TGFβR-1 Kinase Enzyme System (Promega V4092). Test compounds and standard Galunisertib (Cayman 15312), 50 ng/well TGFβR-1 kinase and 50 μM ATP were added in a final volume of 10 μL/well, using Reaction buffer supplied by kit as assay buffer. The reaction mixture was incubated in gentle shaking for 120 min at RT, after incubation of 10 μL of ADP-Glo Reagent was added and incubated in gentle shaking for 40 min at RT. 20 μL of Kinase Detection Reagent was added and plate was incubated in gentle shaking for 30 min at RT. Luminescence (1000 ms) was measured in Perkin Elmer EnSpire Multimode plate reader. Results

[2] = biological target: T2, ALK-5 (Homo sapiens, UniProt P36897); experiment: Determination of the intracellular TGF-beta kinase activity (ALK-5), AlphaLISA SureFire p-SMAD3 in A549 cells; format: cell-based; settings: A549 cell line, TGF-β2 activated, p-SMAD3(Ser423/425)
T2 construct: endogenous in cells; host or cells: A549
T2 sequence (P36897 34-503): T1 sequence (P36897 34-503)
Procedure: Determination of the Intracellular TGF-Beta Kinase Activity (ALK-5)
The experiments were carried out in A549 cell line. 30000 cells were seeded in 200 μl of culture medium (Sigma D6046) supplemented with L-Glutamine (Sigma G7513), Penicillin/Streptomycin (Invitrogen 11058) and FBS (Sigma F9665) on a 96 wells microplate (Becton Dickinson 353072). After 16 hours medium was changed to serum free medium. Galunisertib, as inhibitor ligand (Cayman CAY-15312) and recombinant Human TGF-β2 (R&D Systems 302-B2-002) as activator of the ALK-5, were added in their corresponding wells and incubated following the instructions of the Alphascreen AlphaLISA@SureFire® Ultra™ p-SMAD3(Ser423/425) Kit (Perkin Elmer ALSU-PSM3-A500).

[3] = Determination of plasma stability in human plasma; format: in vitro ADME; settings: 10 μM, 37° C.
Procedure: Determination of Plasma Stability of Some Compounds
Human plasma pooled from healthy donors extracted in citrate tubes was employed in the assay. Briefly, plates containing 10 μM compounds in plasma (total volume: 50 μL) were incubated at 37° C. at the different times (0, 30, 120 and 360 min). Then 100 μl Acetonitrile were added for precipitating plasma protein, and the plate was centrifuged at 46000 g for 60 min at 5° C. Supernatant was taken and analysed by UPLC/MS/MS for sample quantification. Stationary phase: Reverse phase Acquity UPLC® BEH C18 1.7 μm (2.1 mm×50 mm) (Waters). Mobile phase: 0.1% Formic acid water/0.1% formic acid in acetonitrile.
Flow: 0.6 ml/min. The chromatographic equipment employed was an UPL QSM Waters Acquity. Compound concentrations were calculated from the MS peak areas.

Cc1cccc(-c2nn(CC(=O)Nc3cc(F)cc(C(=O)OC45CCN(CC4)CC5)c3)cc2-c2ccnc3ccccc23)n1 [Example 12, quinuclidin-4-yl 3-fluoro-5-(2-(3-(6-methylpyridin-2-yl)-4-(quinolin-4-yl)-1H-pyrazol-1-yl)acetamido)benzoate]
IC50 [1]: < 100 nM

Cc1cccc(-c2nn(CC(=O)Nc3ccc(C(=O)OCCN(C)C)cn3)cc2-c2ccnc3ccccc23)n1 [Example 3, 2-(dimethylamino)ethyl 6-(2-(3-(6-methylpyridin-2-yl)-4-(quinolin-4-yl)-1H-pyrazol-1-yl)acetamido)nicotinate]
IC50 [1]: 100 to 250 nM

Cc1cccc(-c2nn(CC(=O)Nc3cc(F)cc(C(=O)OCCN)c3)cc2-c2ccnc3ccccc23)n1 [Example 16, 2-aminoethyl 3-fluoro-5-(2-(3-(6-methylpyridin-2-yl)-4-(quinolin-4-yl)-1H-pyrazol-1-yl)acetamido)benzoate]
IC50 [1]: < 100 nM

CNCCOC(=O)c1cc(F)cc(NC(=O)Cn2cc(-c3ccnc4ccccc34)c(-c3cccc(C)n3)n2)c1 [Example 15, 2-(methylamino)ethyl 3-fluoro-5-(2-(3-(6-methylpyridin-2-yl)-4-(quinolin-4-yl)-1H-pyrazol-1-yl)acetamido)benzoate]
IC50 [2]: > 1000 nM
IC50 [1]: < 100 nM

Cc1cccc(-c2nn(CC(=O)Nc3cc(F)cc(C(=O)OCCN4CC4)c3)cc2-c2ccnc3ccccc23)n1 [Example 14, 2-(aziridin-1-yl)ethyl 3-fluoro-5-(2-(3-(6-methylpyridin-2-yl)-4-(quinolin-4-yl)-1H-pyrazol-1-yl)acetamido)benzoate]
IC50 [1]: < 100 nM

Cc1cccc(-c2nn(CC(=O)Nc3cc(F)cc(C(=O)OCC4CCNCC4)c3)cc2-c2ccnc3ccccc23)n1 [Example 20, piperidin-4-ylmethyl 3-fluoro-5-(2-(3-(6-methylpyridin-2-yl)-4-(quinolin-4-yl)-1H-pyrazol-1-yl)acetamido)benzoate]
IC50 [1]: 100 to 250 nM

Cc1cccc(-c2nn(CC(=O)Nc3cc(F)cc(C(=O)OCCO)c3)cc2-c2ccnc3ccccc23)n1 [Comparative example 3, 2-hydroxyethyl 3-fluoro-5-(2-(3-(6-methylpyridin-2-yl)-4-(quinolin-4-yl)-1H-pyrazol-1-yl)acetamido)benzoate, reference compound]
remaining percentage 0 min [3]: 100%
remaining percentage 30 min [3]: 99%
remaining percentage 120 min [3]: 96%
remaining percentage 360 min [3]: 73%

Cc1cccc(-c2nn(CC(=O)Nc3cc(F)cc(C(=O)OC4CCN(C)CC4)c3)cc2-c2ccnc3ccccc23)n1 [Example 8, 1-methylpiperidin-4-yl 3-fluoro-5-(2-(3-(6-methylpyridin-2-yl)-4-(quinolin-4-yl)-1H-pyrazol-1-yl)acetamido)benzoate]
IC50 [1]: 100 to 250 nM

Cc1cccc(-c2nn(CC(=O)Nc3cc(F)cc(C(=O)O[C@H]4CN5CCC4CC5)c3)cc2-c2ccnc3ccccc23)n1 [Example 10, (R)-quinuclidin-3-yl 3-fluoro-5-(2-(3-(6-methylpyridin-2-yl)-4-(quinolin-4-yl)-1H-pyrazol-1-yl)acetamido)benzoate]
IC50 [1]: < 100 nM

COC(=O)c1cc(Cl)cc(NC(=O)Cn2cc(-c3ccnc4ccccc34)c(-c3cccc(C)n3)n2)c1 [Comparative example 2, methyl 3-chloro-5-(2-(3-(6-methylpyridin-2-yl)-4-(quinolin-4-yl)-1H-pyrazol-1-yl)acetamido)benzoate, reference compound]
remaining percentage 0 min [3]: 100%
remaining percentage 30 min [3]: 83%
remaining percentage 120 min [3]: 69%
remaining percentage 360 min [3]: 67%

Cc1cccc(-c2nn(CC(=O)Nc3cc(F)cc(C(=O)OCCN4CCN(C)CC4)c3)cc2-c2ccnc3ccccc23)n1 [Example 6, 2-(4-methylpiperazin-1-yl)ethyl 3-fluoro-5-(2-(3-(6-methylpyridin-2-yl)-4-(quinolin-4-yl)-1H-pyrazol-1-yl)acetamido)benzoate]
IC50 [2]: < 1000 nM
IC50 [1]: 100 to 250 nM

Cc1cccc(-c2nn(CC(=O)Nc3cc(F)cc(C(=O)OCC4CC4)c3)cc2-c2ccnc3ccccc23)n1 [Comparative example 1, Cyclopropylmethyl 3-fluoro-5-(2-(3-(6-methylpyridin-2-yl)-4-(quinolin-4-yl)-1H-pyrazol-1-yl)acetamido)benzoate, reference compound]
remaining percentage 0 min [3]: 100%
remaining percentage 30 min [3]: 100%
remaining percentage 120 min [3]: 88%
remaining percentage 360 min [3]: 87%

CCNCCOC(=O)c1cc(F)cc(NC(=O)Cn2cc(-c3ccnc4ccccc34)c(-c3cccc(C)n3)n2)c1 [Example 17, 2-(ethylamino)ethyl 3-fluoro-5-(2-(3-(6-methylpyridin-2-yl)-4-(quinolin-4-yl)-1H-pyrazol-1-yl)acetamido)benzoate]
IC50 [1]: < 100 nM

Cc1cccc(-c2nn(CC(=O)Nc3cc(F)cc(C(=O)OCCNC(C)C)c3)cc2-c2ccnc3ccccc23)n1 [Example 18, 2-(isopropylamino)ethyl 3-fluoro-5-(2-(3-(6-methylpyridin-2-yl)-4-(quinolin-4-yl)-1H-pyrazol-1-yl)acetamido)benzoate]
remaining percentage 0 min [3]: 100%
remaining percentage 30 min [3]: 33.9%
remaining percentage 120 min [3]: 11.1%
remaining percentage 360 min [3]: 0.1%
IC50 [1]: < 100 nM

Cc1cccc(-c2nn(CC(=O)Nc3cc(F)cc(C(=O)OCCN4CCC4)c3)cc2-c2ccnc3ccccc23)n1 [Example 13, 2-(azetidin-1-yl)ethyl 3-fluoro-5-(2-(3-(6-methylpyridin-2-yl)-4-(quinolin-4-yl)-1H-pyrazol-1-yl)acetamido)benzoate]
IC50 [1]: 100 to 250 nM

Cc1cccc(-c2nn(CC(=O)Nc3cncc(C(=O)OCCN(C)C)c3)cc2-c2ccnc3ccccc23)n1 [Example 2, 2-(dimethylamino)ethyl 5-(2-(3-(6-methylpyridin-2-yl)-4-(quinolin-4-yl)-1H-pyrazol-1-yl)acetamido)nicotinate]
IC50 [1]: < 100 nM

Cc1cccc(-c2nn(CC(=O)Nc3cc(F)cc(C(=O)O[C@@H]4CN5CCC4CC5)c3)cc2-c2ccnc3ccccc23)n1 [Example 11, (S)-quinuclidin-3-yl 3-fluoro-5-(2-(3-(6-methylpyridin-2-yl)-4-(quinolin-4-yl)-1H-pyrazol-1-yl)acetamido)benzoate]
IC50 [1]: < 100 nM
